According to patent US20240368351A1, “FACTORS CONTROLLING DRUG RELEASE IN CROSS-LINKED POLY(VALEROLACTONE) BASED MATRICES” (Pendant Biosciences, Inc., priority 2019, published 2024):
≈ marks a conversion by molar mass, not a printed value. One block for each molecule: values may come before it.

Experiments:
[1] = Solubility of Drug X in organic solvents and water; format: physicochemical
[2] = cited from earlier work
[3] = Stability of Drug X freebase in PBS with or without SDS by HPLC; format: physicochemical
Excerpt: The appearance of second peak correlates with concentration of the drug.

[4] = Drug solubility in different release media (PBS with Tween 80 or SDS); format: physicochemical; details: for solubility at 48 h: release media (PBS with Tween 80 or SDS), 37 °C, pH 7.4, aqueous with cosolvent or surfactant or cyclodextrin, thermodynamic from solid
Method: Mikkelsen, L. M., Enzyme solubility in liquid detergent and use of detergent composition. […] Crotts, G.; Park, T. G. Protein delivery from poly(lactic-co-glycolic acid) biodegradable microspheres: Release kinetics and stability issues. […] FDA.
The solutions were centrifuged at 8000 rpm for 10 minutes, and a 1 ml aliquot was withdrawn, filtered through a 0.45 μm nylon membrane, and analyzed by HPLC.

[5] = logP (octanol-water partition) by shake tube method; format: physicochemical
[6] = In vitro drug release from cross-linked matrices (CPs), sample-and-separate, with mathematical modeling (Fick diffusion); format: physicochemical; details: for cumulative release from the drug-loaded crosslinked copolymer: embodiment statement
Method: Evaluation of in vitro drug release: impact of the nature of the drug, polymer and release media: In the in vitro release studies the impact of a number of variables was evaluated including nature of the drug, compatibility between the drug and the polymer matrix, degree of crystallinity of the matrix, M.W. of the copolymer, cross-linking density and the composition of the release media. The commonly used, sample-and-separate method was employed to evaluate drug release from the cross-linked matrices. D'Souza, S. S.; DeLuca, P. P. Methods to Assess in vitro Drug Release from Injectable Polymeric Particulate Systems. Pharmaceutical Research 2006, 23, 3, 460-474.
The Peppas-Sahlin model, where diffusion and polymer relaxation are known to be the underlying drivers of drug release provided the best fit in terms of R^2adjusted (FIGS. 8A and 8C) For cylindrical shaped matrices, Fickian diffusion is considered to be operative when the ratio of diameter to thickness (n or m) of the matrix is equal to or less than 0.45. If the value is […], the drug release mechanism is considered non-Fickian; whereas, if n is 0.89 drug release is considered to be case II transport. Herein, the dimension and the geometry of the matrices evaluated have a value of 0.78<n<0.80. […]
Protocols for drug analysis by HPLC and cytotoxicity evaluation of the cross-linked matrices: The drug release was analyzed by reverse phase HPLC using an Agilent 1200 HPLC system with Agilent ChemStation software, an XDB C18 column (150×4.6 mm i.d+guard column) and UV detection. […] Drug concentrations were quantified using calibration curves using standards that ranged in concentration from 1 to 100 μg/ml (0.9986≤R^2≤1).
The CPs were incubated at 37° C. under constant stirring and at pre-determined time points, a 1 ml aliquout was removed and replaced with 1 mL of fresh media and the samples were immediately frozen at −20° C. for storage prior to HPLC analysis. […] The drug was reconstituted in 1 ml of the HPLC mobile phase and analyzed to correct the DLC and release curves. […]

[7] = PBS with SDS, 120 μg/ml, 2 days
[8] = PBS with SDS, 120 μg/ml, 3 days
[9] = PBS with SDS, 120 μg/ml, 4 days

Compound: CC(C)OC(=O)[C@H](C)N[P@](=O)(CO[C@H](C)Cn1cnc2c(N)ncnc21)Oc1ccccc1.CC(C)OC(=O)[C@H](C)N[P@](=O)(CO[C@H](C)Cn1cnc2c(N)ncnc21)Oc1ccccc1.O=C(O)/C=C/C(=O)O [Drug X fumarate]
Solubility in EtOH/DMSO (50/50) ([1]; 5 mg per 100 mL or μL): Soluble, and | Solubility in DMSO/Water (50/50) ([1]; 5 mg per 200 mL or μL): Insoluble | Solubility in Water ([1]; 5 mg per 200 mL or μL): Insoluble

Compound: CC1(C)S[C@@H]2[C@H](NC(=O)Cc3ccccc3)C(=O)N2[C@H]1C(=O)O [Penicillin G, reference compound]
Log P [2]: 1.83 | Water solubility [2]: water (0.21 mg/mL) | Water solubility (words) [2]: Slightly soluble in | pKa [2]: 3.96

Compound: CC(C)OC(=O)[C@H](C)N[P@](=O)(CO[C@H](C)Cn1cnc2c(N)ncnc21)Oc1ccccc1 [Drug X freebase]
Solubility EtOH ([1]; 5 mg/100 μl, cell wraps: 'Soluble, and' / 'transparent'): Soluble, and | area of the HPLC peak corresponding to Drug X freebase as a function of time ([3]; PBS with 0.5% SDS): constantly decreased as a function of time | Area (Drug X freebase peak) ([3]; PBS with SDS, 12 μg/ml, 1 hr): 191.5 | Area (Drug X freebase peak) ([3]; PBS with SDS, 12 μg/ml, 3 hrs): 185.7 | Area (Drug X freebase peak) ([3]; PBS with SDS, 12 μg/ml, 7 hrs): 182.8 | Area (Drug X freebase peak) ([3]; PBS with SDS, 12 μg/ml, 1 day): 179.2 | Area (Drug X freebase peak) ([3]; PBS with SDS, 12 μg/ml, 2 days): 178.7 | Area (Drug X freebase peak) ([3]; PBS with SDS, 12 μg/ml, 3 days): 155.2 | Area (Drug X freebase peak) ([3]; PBS with SDS, 12 μg/ml, 4 days): 155.8 | Area (Drug X freebase peak) ([3]; PBS with SDS, 12 μg/ml, T = 0): 192.6 | Area (2nd) second peak ([3]; PBS with SDS, 60 μg/ml, 1 hr): (99.6) | Area (Drug X freebase peak) ([3]; PBS with SDS, 60 μg/ml, 1 hr): 934.7 | Area (2nd) second peak ([3]; PBS with SDS, 60 μg/ml, 3 hrs): (85.18) | Area (Drug X freebase peak) ([3]; PBS with SDS, 60 μg/ml, 3 hrs): 909.05 | Area (2nd) second peak ([3]; PBS with SDS, 60 μg/ml, 7 hrs): (95.5) | Area (Drug X freebase peak) ([3]; PBS with SDS, 60 μg/ml, 7 hrs): 906.7 | Area (2nd) second peak ([3]; PBS with SDS, 60 μg/ml, 1 day): (87.6) | Area (Drug X freebase peak) ([3]; PBS with SDS, 60 μg/ml, 1 day): 867.8 | Area (2nd) second peak ([3]; PBS with SDS, 60 μg/ml, 2 days): (77.0) | Area (Drug X freebase peak) ([3]; PBS with SDS, 60 μg/ml, 2 days): 783.7 | Area (2nd) second peak ([3]; PBS with SDS, 60 μg/ml, 3 days): (72.3) | Area (Drug X freebase peak) ([3]; PBS with SDS, 60 μg/ml, 3 days): 712.2 | Area (2nd) second peak ([3]; PBS with SDS, 60 μg/ml, 4 days): (68.1) | Area (Drug X freebase peak) ([3]; PBS with SDS, 60 μg/ml, 4 days): 677.3 | Area (2nd) second peak ([3]; PBS with SDS, 60 μg/ml, T = 0): (73.9) | Area (Drug X freebase peak) ([3]; PBS with SDS, 60 μg/ml, T = 0): 929.6 | Area (2nd) second peak ([3]; PBS with SDS, 120 μg/ml, 1 hr): (223.0) | Area (Drug X freebase peak) ([3]; PBS with SDS, 120 μg/ml, 1 hr): 1768.4 | Area (2nd) second peak ([3]; PBS with SDS, 120 μg/ml, 3 hrs): (219.47) | Area (Drug X freebase peak) ([3]; PBS with SDS, 120 μg/ml, 3 hrs): 1764.9 | Area (2nd) second peak ([3]; PBS with SDS, 120 μg/ml, 7 hrs): (212.8) | Area (Drug X freebase peak) ([3]; PBS with SDS, 120 μg/ml, 7 hrs): 1707.5 | Area (2nd) second peak ([3]; PBS with SDS, 120 μg/ml, 1 day): (189.8) | Area (Drug X freebase peak) ([3]; PBS with SDS, 120 μg/ml, 1 day): 1613.5 | Area (2nd) second peak [3, 7]: (193.9) | Area (Drug X freebase peak) [3, 7]: 1539.2 | Area (2nd) second peak [3, 8]: (167.5) | Area (Drug X freebase peak) [3, 8]: 1401.2 | Area (2nd) second peak [3, 9]: (160.3) | Area (Drug X freebase peak) [3, 9]: 1318.3 | Area (2nd) second peak ([3]; PBS with SDS, 120 μg/ml, T = 0): (218.0) | Area (Drug X freebase peak) ([3]; PBS with SDS, 120 μg/ml, T = 0): 1849.3 | HPLC peak corresponding to Drug X free base as a function of time ([3]; PBS without SDS, regardless of concentration): constantly decreasing as a function of time | Area (Drug X freebase peak) ([3]; Table 47, PBS with SDS, 12 μg/ml, 1 hr): 164.51 | Area (Drug X freebase peak) ([3]; Table 47, PBS with SDS, 12 μg/ml, 3 hrs): 162.2 | Area (Drug X freebase peak) ([3]; Table 47, PBS with SDS, 12 μg/ml, 7 hrs): 161.0 | Area (Drug X freebase peak) ([3]; Table 47, PBS with SDS, 12 μg/ml, 1 day): 132.2 | Area (Drug X freebase peak) ([3]; Table 47, PBS with SDS, 12 μg/ml, 2 days): 103.6 | Area (Drug X freebase peak) ([3]; Table 47, PBS with SDS, 12 μg/ml, 3 days): 84.2 | Area (Drug X freebase peak) ([3]; Table 47, PBS with SDS, 12 μg/ml, 4 days): 57.5 | Area (Drug X freebase peak) ([3]; Table 47, PBS with SDS, 12 μg/ml, T = 0): 169.2 | Area (Drug X freebase peak) ([3]; Table 47, PBS with SDS, 60 μg/ml, 1 hr): 897.8 | Area (Drug X freebase peak) ([3]; Table 47, PBS with SDS, 60 μg/ml, 3 hrs): 875.2 | Area (Drug X freebase peak) ([3]; Table 47, PBS with SDS, 60 μg/ml, 7 hrs): 850.6 | Area (Drug X freebase peak) ([3]; Table 47, PBS with SDS, 60 μg/ml, 1 day): 663.9 | Area (Drug X freebase peak) ([3]; Table 47, PBS with SDS, 60 μg/ml, 2 days): 511.8 | Area (Drug X freebase peak) ([3]; Table 47, PBS with SDS, 60 μg/ml, 3 days): 361.7 | Area (Drug X freebase peak) ([3]; Table 47, PBS with SDS, 60 μg/ml, 4 days): 303.9 | Area (Drug X freebase peak) ([3]; Table 47, PBS with SDS, 60 μg/ml, T = 0): 903.4 | Area (Drug X freebase peak) ([3]; Table 47, PBS with SDS, 120 μg/ml, 1 hr): 1797.8 | Area (Drug X freebase peak) ([3]; Table 47, PBS with SDS, 120 μg/ml, 3 hrs): 1790.0 | Area (Drug X freebase peak) ([3]; Table 47, PBS with SDS, 120 μg/ml, 7 hrs): 1687.7 | Area (Drug X freebase peak) ([3]; Table 47, PBS with SDS, 120 μg/ml, 1 day): 1319.2 | Area (Drug X freebase peak) ([3]; Table 47, PBS with SDS, 120 μg/ml, 2 days): 1023.1 | Area (Drug X freebase peak) ([3]; Table 47, PBS with SDS, 120 μg/ml, 3 days): 722.9 | Area (Drug X freebase peak) ([3]; Table 47, PBS with SDS, 120 μg/ml, 4 days): 593.4 | Area (Drug X freebase peak) ([3]; Table 47, PBS with SDS, 120 μg/ml, T = 0): 1841.8

solubility, times greater in 0.5% SDS than in 0.1% SDS ([4]; PBS): 10 times | solubility, times greater in 0.5% SDS than in 0.1% Tween 80 ([4]; PBS): 50 times | solubility at 48 h [4]: 106 ± 0.57 µg/mL (≈ 124 µM) | logP ([5]; read-out: Calculated LogP): 2.7 | cumulative release from the drug-loaded crosslinked copolymer ([6]; after 35 days): about 58 wt %
Compound: CC(=O)O[C@H]1C(=O)[C@@]2(C)[C@H]([C@H](OC(=O)c3ccccc3)[C@]3(O)C[C@H](OC(=O)[C@H](O)[C@@H](NC(=O)c4ccccc4)c4ccccc4)C(C)=C1C3(C)C)[C@]1(OC(C)=O)CO[C@@H]1C[C@@H]2O [Paclitaxel, paclitaxel]

Compound: COc1cc(/C=C/C(=O)CC(=O)/C=C/c2ccc(O)c(OC)c2)ccc1O [Curcumin, curcumin]
solubility at 48 h [4]: 45.6 ± 1.05 µg/mL (≈ 124 µM) | Calculated LogP [5]: 3

period of release ([6]; from all matrices, PBS with 0.5% SDS, 37° C.): less than a week
Compound: CC(=O)Nc1ccc(O)cc1 [Acetaminophen, acetaminophen]

solubility at 48 h [4]: 37.9 ± 0.4 µg/mL (≈ 71.1 µM) | cumulative release from the drug-loaded crosslinked copolymer ([6]; after 34 days): about 42 wt %
Compound: CC(C)(C)CC(=O)OCC(=O)[C@@]12OC(C)(C)O[C@@H]1C[C@H]1[C@@H]3CCC4=CC(=O)C=C[C@]4(C)[C@@]3(F)[C@@H](O)C[C@@]12C [Triamcinolone hexacetonide, triamcinolone hexacetonide]
